Read-outs that look alike come from different tables or passages of the source.
How the values were obtained:
human H3 receptor = target: T1, human H3 receptor (Homo sapiens, UniProt Q9Y5N1); assay: Human H3 radioligand binding ([3H]-N-alpha-methylhistamine, SPA)
T1 construct: expressed in transfected cells
In short: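 SPA competition binding on membranes from CHO cells stably expressing human H3 receptor (10 μg protein/well) with ~1 nM [3H]-N-alpha-methylhistamine and compound at 0.01 nM-30 μM. Incubation 4 h at room temperature in 50 mM Tris-HCl pH 7.4, 5 mM MgCl2, 0.1% BSA; non-specific binding defined with 10 μM clobenpropit.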

[1] = target: T2, rat histamine H3 receptor (Rattus norvegicus, UniProt Q9QYN8); assay: Rat H3 radioligand binding ([3H]-N-alpha-methylhistamine, SPA)
T2 construct: encoding the entire 445-amino-acid rat histamine H3 receptor; expressed in transfected cells; membrane preparation
T2 sequence (Q9QYN8 whole entry): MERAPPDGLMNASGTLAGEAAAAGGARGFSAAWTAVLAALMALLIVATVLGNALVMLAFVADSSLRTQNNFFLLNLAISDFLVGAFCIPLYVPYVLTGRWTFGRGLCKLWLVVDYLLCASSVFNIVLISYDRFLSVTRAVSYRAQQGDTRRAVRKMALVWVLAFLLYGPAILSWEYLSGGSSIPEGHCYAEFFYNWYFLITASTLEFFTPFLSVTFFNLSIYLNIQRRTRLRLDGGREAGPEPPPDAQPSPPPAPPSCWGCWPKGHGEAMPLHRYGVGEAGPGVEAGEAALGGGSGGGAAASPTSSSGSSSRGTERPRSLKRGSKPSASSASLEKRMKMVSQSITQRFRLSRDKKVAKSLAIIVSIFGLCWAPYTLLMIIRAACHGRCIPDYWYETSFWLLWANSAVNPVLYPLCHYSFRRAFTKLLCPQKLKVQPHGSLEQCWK
In short: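 Membranes from CHO-A3 cells stably expressing full-length rat H3 receptor (10 μg protein/well) incubated 4 h at room temperature, protected from light, with ~1 nM [3H]-N-alpha-methylhistamine and compound (0.01 nM-30 μM) in 50 mM Tris HCl pH 7.4, 5 mM MgCl2, 0.1% BSA. Binding read by SPA; 10 μM clobenpropit defined non-specific binding.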

[2] = human H3 binding, Table D, read-out: Human H3 Ki
[3] = rat H3 binding, Table D, read-out: Rat H3 Ki
[4] = Human H3 binding, Table B, Examples 136-362, read-out: hum H3 binding Ki
[5] = Rat H3 binding, Table B, Examples 136-362, read-out: rat H3 binding Ki
[6] = Table A, human H3 binding, read-out: Human Ki
[7] = Table A, rat H3 binding, read-out: Rat Ki

T1 sequence (Q9Y5N1 whole entry): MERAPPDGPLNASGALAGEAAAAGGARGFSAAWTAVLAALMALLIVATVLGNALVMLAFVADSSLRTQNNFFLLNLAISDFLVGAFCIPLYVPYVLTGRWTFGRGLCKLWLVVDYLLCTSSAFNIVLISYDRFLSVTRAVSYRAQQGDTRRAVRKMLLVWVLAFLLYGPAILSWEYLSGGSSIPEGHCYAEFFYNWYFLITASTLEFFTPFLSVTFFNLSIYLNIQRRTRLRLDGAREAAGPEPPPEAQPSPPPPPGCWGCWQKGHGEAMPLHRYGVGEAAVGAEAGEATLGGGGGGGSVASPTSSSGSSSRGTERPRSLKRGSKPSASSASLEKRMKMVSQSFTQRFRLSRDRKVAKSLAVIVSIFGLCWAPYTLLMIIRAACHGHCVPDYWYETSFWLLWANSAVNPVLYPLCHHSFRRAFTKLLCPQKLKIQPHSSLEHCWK

In the case of `COCCNC(=O)c1ccc(-c2ccc3c(c2)COC2(CCN(C4CCC4)CC2)O3)cc1OC` [Example 634], the melting point is reported as 50 to 52 °C, the Ki (human H3 receptor; [2]) is reported as < 0.2 µM and the Ki [1, 3] is reported as < 0.2 µM.
With `CNC(=O)c1ccc(-c2ccc3c(c2)COC2(CCN(C4CCC4)CC2)O3)s1` [Example 176] the melting point was 215 to 219 °C, the Ki (human H3 receptor; [4]) was < 0.2 µM and the Ki [1, 5] was < 0.2 µM.
With `COCCNC(=O)c1ccc(-c2ccc3c(c2)COC2(CCN(C4CCC4)CC2)O3)cc1` [Example 26] the melting point was 145 to 147 °C, the Ki (human H3 receptor; [6]) was < 0.2 µM and the Ki [1, 7] was < 0.2 µM.
With `O=S1(=O)CCC(O)(c2ccc3c(c2)CCC2(CCN(C4CCC4)CC2)O3)CC1` [Example 535] the melting point was 213 to 215 °C, the Ki (human H3 receptor; read-out: Human H3 Ki) was < 0.2 µM and the Ki ([1]; read-out: Rat H3 kI) was < 0.2 µM.
With `O=C(NC1CCN(c2ccc3c(c2)COC2(CCN(C4CCC4)CC2)O3)CC1)N1CCCC1` [Example 319] the melting point was 210.2 to 212.6 °C, the Ki (human H3 receptor; [4]) was < 0.2 µM and the Ki [1, 5] was < 0.2 µM.
With `COCCN1CC(COc2ccc3c(c2)CCC2(CCN(C4CCC4)CC2)O3)CC1=O` (stereo not drawn) [Example 515] the melting point was 194 to 196 °C, the Ki (human H3 receptor; read-out: Human H3 Ki) was < 0.2 µM and the Ki ([1]; read-out: Rat H3 kI) was < 0.2 µM.
In the case of `COc1ccc(Cc2ccc3c(c2)COC2(CCN(C4CCC4)CC2)O3)cn1` [Example 516], the melting point is reported as 229 to 231 °C, the Ki (human H3 receptor; read-out: Human H3 Ki) is reported as < 0.2 µM and the Ki ([1]; read-out: Rat H3 kI) is reported as < 0.2 µM.
In the case of `Cc1c(-c2ccc3c(c2)COC2(CCN(C4CCC4)CC2)O3)cn(CC(F)(F)F)c(=O)c1C` [Example 783], the melting point is reported as 96 to 98 °C, the Ki (human H3 receptor; [2]) is reported as < 0.2 µM and the Ki [1, 3] is reported as < 0.2 µM.
For `Cc1nnc(C2CCC(c3ccc4c(c3)COC3(CCN(C5CCC5)CC3)O4)CC2)o1` (stereo not drawn) [Example 707], the melting point was 62.4 to 64.7 °C, the Ki (human H3 receptor; [2]) was < 0.2 µM and the Ki [1, 3] was < 0.2 µM.
With `COC(=O)CCc1ccc2c(c1)COC1(CCN(C3CCC3)CC1)O2` [Example 630] the melting point was 66 to 68 °C, the Ki (human H3 receptor; [2]) was < 0.2 µM and the Ki [1, 3] was < 0.2 µM.
For `CC(=O)N1CCN(c2ccc3c(c2)COC2(CCN(C4CCC4)CC2)O3)CC1` [Example 283], the melting point was 60.8 to 62.3 °C, the Ki (human H3 receptor; [4]) was < 0.2 µM and the Ki [1, 5] was < 0.2 µM.
With `Cc1cc(=O)n(C(F)F)cc1-c1ccc2c(c1)COC1(CCN(C3CCC3)CC1)O2` [Example 764] the melting point was 119 to 121 °C, the Ki (human H3 receptor; [2]) was < 0.2 µM and the Ki [1, 3] was < 0.2 µM.
For `CC(C)N1CC(c2ccc3c(c2)COC2(CCN(C4CCC4)CC2)O3)CCC1=O` (stereo not drawn) [Example 563], the melting point was 129 to 134 °C, the Ki (human H3 receptor; read-out: Human H3 Ki) was < 0.2 µM and the Ki ([1]; read-out: Rat H3 kI) was < 0.2 µM.
With `c1ncc(-c2ccc3c(c2)COC2(CCN(C4CCC4)CC2)O3)cn1` [Example 45] the melting point was 153 to 155 °C, the Ki (human H3 receptor; [6]) was < 0.2 µM and the Ki [1, 7] was < 0.2 µM.
In the case of `CC(C)C(=O)N1CCC(COc2ccc3c(c2)CCC2(CCN(C4CCC4)CC2)O3)CC1` [Example 357], the melting point is reported as 130 to 132 °C, the Ki (human H3 receptor; [4]) is reported as < 0.2 µM and the Ki [1, 5] is reported as < 0.2 µM.
In the case of `O=C(Nc1ccc2c(c1)COC1(CCN(C3CCC3)CC1)O2)N1CCOCC1` [Example 165], the melting point is reported as 238 to 240 °C, the Ki (human H3 receptor; [4]) is reported as < 0.2 µM and the Ki [1, 5] is reported as 0.2 to 1 µM.
For `Cc1nc2cccc(Cl)c2c(=O)n1-c1ccc2c(c1)COC1(CCN(C3CCC3)CC1)O2` [Example 801], the melting point was 105 to 107 °C, the Ki (human H3 receptor; [2]) was < 0.2 µM and the Ki [1, 3] was < 0.2 µM.

— patent US8513232B2, “Substituted spirocyclic piperidine derivatives as histamine-3 (H3) receptor ligands” (Cephalon, Inc., priority 2008, dated 2013)
